Experimental data published in patent publication US20230210857A1, “RESPIRATORY STIMULANT PARENTERAL FORMULATIONS” (Enalare Therapeutics Inc., priority 2021, published 2023).

How the values were obtained:
Format in all cases: physicochemical
[1] = Drug substance stability (API in closed Type I glass vials)
Experimental: Methodology: Approximately 100 mg of the API (Lot 009MSB058) were stored at each of 40° C. and 60° C. in closed Type I glass vials. Samples were analyzed for appearance and percent purity at T0 and after 1 week, 2 weeks and 4 weeks of storage.
Visually, there were no signs of degradation (i.e. discoloration etc.).

[2] = pKa and theoretical free base solubility
[3] = pH solubility study (100 mM citric acid, shaken overnight at room temperature, HPLC assay)
Experimental: A pH solubility study was performed to assess the feasibility of formulating the active agent (N-(4,6-Bis-n-propylamino-[1,3,5]triazin-2-yl)-O,N-dimethyl-hydroxylamine) as a simple buffered solution at a reasonable pH for an IV formulation.
Methodology: The active agent (N-(4,6-Bis-n-propyl amino-[1,3,5]triazin-2-yl)-O,N-dimethyl-hydroxylamine) and H2SO4 solution of concentration ˜107 mg/mL in 100 mM citric acid at pH 2.5 was prepared. About 150 μL aliquots of this solution were transferred into 6 separate glass HPLC vials. All the samples, including the solution at pH 2.5, were shaken overnight at room temperature using a gyratory shaker. After shaking, the samples were evaluated visually for the presence of precipitate and were then spin filtered through 0.45 μm syringe tip filters (4 mm diameter) at 3000 rpm for 20 min. The final pH values of the filtrates were measured. The filtrates were then diluted appropriately and analyzed for the active agent (N-(4,6-Bis-n-propylamino-[1,3,5]triazin-2-yl)-O,N-dimethyl-hydroxylamine). H2SO4 concentration using the HPLC assay.
Results: The pH values of the samples prior to and after shaking overnight, appearance as well as concentrations of samples are shown in Table 12.

[4] = Stability as a function of pH, narrow range pH 2-3.6 (1 mg/mL in ~10 mM citric acid/glycine buffers)
Experimental: Accordingly, the stability of the compound was evaluated in the pH range 2-3.6.
Methodology: Buffer solutions containing ˜10 mM each of citric acid and glycine in the pH range 2-3.6 were prepared by titrating 250 mL of a single stock containing both buffer agents with 1N NaOH/1N HCl and removing 50 mL aliquots at predetermined pH values. Solutions at 1 mg/mL were prepared in the buffers by dissolving ˜25 mg of compound in ˜23 mL of a given buffer, adjusting the pH to the target and making up the volume to 25.0 mL in a volumetric flask.
Each of the buffered solutions was filtered through a 0.2 μm polyether sulfone syringe filter into a volumetric flask previously rinsed with 70% ethanol and dried in a laminar flow hood. Following filtration, each buffered solution was split into 9 aliquots in 5 mL serum vials previously rinsed with 70% ethanol and dried in a laminar flow hood. Filtration and preparation of aliquots were performed in a laminar flow hood. Of the nine aliquots, three aliquots were stored at each 40° C. and 60° C., two aliquots were stored at 25° C. and one aliquot was submitted for T0 testing. Samples were evaluated for pH, assay and related substances at T0 and, following 1 week, 2 weeks and 4 weeks of storage at 40° C. and 60° C. Samples stored at 25° C. served as controls to be analyzed if necessary.
This means that any increase in the pH of the formulation leads to an improvement in stability within the pH range in which an aqueous formulation is feasible.

drug substance stability (in words) ([1]; 4 weeks even at 60° C.): quite stable | Appearance ([1]; 40° C., T = 1 week): White | Purity ([1]; 40° C., T = 1 week): 99.92% | Related Substances (Total) ([1]; 40° C., T = 1 week): Total 0.08 | Appearance ([1]; 40° C., T = 2 week): White | Purity ([1]; 40° C., T = 2 week): 99.90% | Related Substances (Total) ([1]; 40° C., T = 2 week): Total 0.10 | Appearance ([1]; 40° C., T = 4 week): White | Purity ([1]; 40° C., T = 4 week): 100.00% | Appearance ([1]; 60° C., T = 1 week): powder | Purity ([1]; 60° C., T = 1 week): 99.76% | Related Substances (Total) ([1]; 60° C., T = 1 week): Total 0.24 | Appearance ([1]; 60° C., T = 2 week): powder | Purity ([1]; 60° C., T = 2 week): 100.00% | Appearance ([1]; 60° C., T = 4 week): powder | Purity ([1]; 60° C., T = 4 week): 100.00% | Appearance ([1]; T = 0): White | Purity ([1]; T = 0): 100.00% | pKa [2]: 5.6 | theoretical free base solubility [2]: about 0.18 mg/mL | Active Agent · H2SO4 Concentration ([3]; pH 2.42): 104.1 mg/mL | Active Agent · H2SO4 Concentration ([3]; pH 3): 99.8 mg/mL | Active Agent · H2SO4 Concentration ([3]; pH 3.51): 101.6 mg/mL | Appearance after Shaking ([3]; target pH 2.5): Clear solution | Appearance after Shaking ([3]; target pH 3.0): Clear solution | Appearance after Shaking ([3]; target pH 3.5): Clear solution | Appearance after Shaking ([3]; target pH 4.0): Precipitate | Appearance after Shaking ([3]; target pH 4.5): Precipitate | Appearance after Shaking ([3]; target pH 5.0): Precipitate | Appearance after Shaking ([3]; target pH 5.5): Precipitate | Assay ([4]; target pH 2.0, 60° C. 4 wk): 0.786 | Impurities ([4]; target pH 2.7, 60° C. 4 wk): 3.9 | pH ([4]; target pH 3.0, 60° C. 4 wk): 3.00 | Assay ([4]; target pH 3.6, 60° C. 2 wk): 0.958
SMILES: CCCNc1nc(NCCC)nc(N(C)OC)n1 [active agent, N-(4,6-Bis-n-propylamino-[1,3,5]triazin-2-yl)-O,N-dimethyl-hydroxylamine]
